Laboratory results taken from patent publication US11046716B2, “Beta-lactamase inhibitors” (priority 2015, dated 2021).

How the values were obtained:
[1] = test system: E. cloacae expressing the Class C P99; test: Broth microdilution MIC assay with ceftazidime, E. cloacae P99; format: cell-based; details: Fixed CAZ (ceftazidime) 4 μg/mL; E. cl. 144200 p99 AmpC
Outline: (§1)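 CAMHB; cpd 2-fold serial dilution, 16–0.125 μg/mL final; β-lactam static 4 μg/ml; CLSI inoculation; 16–20 h, 37° C; MIC read by eye.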

[2] = test system: K. pneumoniae expressing the Class A carbapenemase KPC-2; test: Broth microdilution MIC assay with meropenem, K. pneumoniae KPC-2; format: cell-based; details: Fixed Mero (meropenem) 4 μg/mL; K. p. 156319 KPC-3
Outline: as §1

[3] = test system: E. coli expressing the Class A Extended Spectrum Beta-Lactamase (ESBL) CTX-M-15; test: Broth microdilution MIC assay with ceftazidime, E. coli CTX-M-15; format: cell-based; details: Fixed CAZ (ceftazidime) 4 μg/mL; E. coli ESBL4 CTX-M-15
Outline: as §1

SHV-5 = biological target: T1, SHV-5 (Klebsiella pneumoniae, UniProt P0A3M1); test: β-lactamase enzyme inhibition assay, SHV-5 (cefotaxime substrate); format: biochemical
T1 construct: made in house; host or cells: E. coli BL21(DE3)
T1 sequence (P0A3M1 22-286): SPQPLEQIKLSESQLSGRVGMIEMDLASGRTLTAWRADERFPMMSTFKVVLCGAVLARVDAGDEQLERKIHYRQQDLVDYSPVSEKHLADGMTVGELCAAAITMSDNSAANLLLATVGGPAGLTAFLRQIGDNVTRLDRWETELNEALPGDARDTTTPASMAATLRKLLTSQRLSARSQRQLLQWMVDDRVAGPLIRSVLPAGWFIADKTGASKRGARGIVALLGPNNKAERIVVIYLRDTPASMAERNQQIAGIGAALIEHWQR
Outline: (§2)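 Untagged enzyme from E. coli BL21(DE3), purified by Capto S then Superdex 75; 15 min 37 °C preincubation with inhibitor; KPC-2 read with imipenem at 300 nm, SHV-5 with cefotaxime at 260 nm, OXA-1 with nitrocefin 100 μM final at 486 nm; 10 min kinetic read; IC50 vs uninhibited wells.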

[4] = test system: P. aeruginosa expressing the Class B carbapenemase VIM-2; test: Broth microdilution MIC assay with meropenem, P. aeruginosa VIM-2; format: cell-based; details: Fixed Mero (meropenem) 4 μg/mL; P. aerug. 2775 VIM-2
Outline: as §1

OXA-48 = OXA-48 (UniProt Q6XEC0); test: β-lactamase enzyme inhibition assay, Class D oxacillinase; format: biochemical; details: read-out: OXA-48
[5] = test system: K. pneumoniae expressing the class A carbapenemase KPC-2 and the class B carbapenemase VIM-4; test: Broth microdilution MIC assay with meropenem, K. pneumoniae KPC-2 and VIM-4; format: cell-based; details: Fixed Mero (meropenem) 4 μg/mL; K. p. A-1797 KPC-2 VIM-4
Outline: as §1

AmpC = biological target: T2, AmpC (Enterobacter cloacae, UniProt P05364); test: β-lactamase enzyme inhibition assay, p99 AmpC (nitrocefin substrate); format: biochemical
T2 construct: made in house; host or cells: E. coli BL21(DE3)
T2 sequence (P05364 21-381): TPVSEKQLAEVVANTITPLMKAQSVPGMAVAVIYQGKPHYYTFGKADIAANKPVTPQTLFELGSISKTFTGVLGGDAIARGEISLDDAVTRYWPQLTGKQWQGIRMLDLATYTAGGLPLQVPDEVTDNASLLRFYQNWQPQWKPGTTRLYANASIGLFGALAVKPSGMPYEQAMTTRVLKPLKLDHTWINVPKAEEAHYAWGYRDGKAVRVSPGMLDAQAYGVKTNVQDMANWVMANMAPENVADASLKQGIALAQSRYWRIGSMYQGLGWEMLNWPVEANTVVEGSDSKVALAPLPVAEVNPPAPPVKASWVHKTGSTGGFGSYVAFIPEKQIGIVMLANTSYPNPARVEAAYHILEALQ
Outline: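 Untagged enzyme from E. coli BL21(DE3), purified by Capto S then Superdex 75; 15 min 37 °C preincubation with inhibitor; 10 min kinetic read; IC50 vs uninhibited wells.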

VIM-2 = biological target: T3, VIM-2 (Escherichia coli, UniProt Q5U7L7); test: β-lactamase enzyme inhibition assay, VIM-2 (nitrocefin substrate); format: biochemical; details: Class B; nitrocefin substrate, 486 nm; read-out: VIM-2
T3 construct: made in house; host or cells: E. coli BL21(DE3)
Outline: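 Enzyme + inhibitor, 37 °C, 15 min; nitrocefin 100 μM final; A486 read for 10 min. % inhibition vs no-inhibitor wells per concentration; IC50 = concentration halving initial hydrolysis rate.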

[6] = test system: K. pneumoniae producing the Class D carbapenemase OXA-48; test: Broth microdilution MIC assay with meropenem, K. pneumoniae OXA-48; format: cell-based; details: Fixed Mero (meropenem) 4 μg/mL; K. p. 11978 OXA-48
Outline: as §1

KPC-2 = biological target: T4, KPC-2 (Klebsiella pneumoniae, UniProt Q9F663); test: β-lactamase enzyme inhibition assay, KPC-2 (imipenem substrate); format: biochemical; details: Class A; imipenem substrate, 300 nm; read-out: KPC-2
T4 construct: made in house; host or cells: E. coli BL21(DE3)
T4 sequence (Q9F663 25-293, looked up): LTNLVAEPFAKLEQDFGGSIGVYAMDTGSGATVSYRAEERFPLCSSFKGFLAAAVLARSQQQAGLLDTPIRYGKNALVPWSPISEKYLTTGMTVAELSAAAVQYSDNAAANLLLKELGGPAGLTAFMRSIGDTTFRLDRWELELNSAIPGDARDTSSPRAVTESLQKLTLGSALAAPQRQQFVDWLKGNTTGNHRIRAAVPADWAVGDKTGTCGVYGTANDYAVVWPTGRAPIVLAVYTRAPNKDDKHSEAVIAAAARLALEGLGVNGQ
Outline: as §2

| Structure (SMILES) | MIC (μg/mL) of Exemplary Compounds in presence of fixed β-lactams: E. cl. 144200 p99 AmpC [1] | MIC (μg/mL) of Exemplary Compounds in presence of fixed β-lactams: K. p. 156319 KPC-3 [2] | MIC (μg/mL) of Exemplary Compounds in presence of fixed β-lactams: E. coli ESBL4 CTX-M-15 [3] | IC50 (SHV-5) | MIC (μg/mL) of Exemplary Compounds in presence of fixed β-lactams: P. aerug. 2775 VIM-2 [4] | IC50 (OXA-48) | MIC (μg/mL) of Exemplary Compounds in presence of fixed β-lactams: K. p. A-1797 KPC-2 VIM-4 [5] | IC50 (AmpC) | IC50 (VIM-2) | MIC (μg/mL) of Exemplary Compounds in presence of fixed β-lactams: K. p. 11978 OXA-48 [6] | IC50 (KPC-2) |
| --- | --- | --- | --- | --- | --- | --- | --- | --- | --- | --- | --- |
| NC1CN(C(=O)c2cn(CC(=O)N[C@H]3Cc4cccc(C(=O)O)c4OB3O)nn2)C1 [Example 80, (R)-3-(2-(4-(3-aminoazetidine-1-carbonyl)-1H-1,2,3-triazol-1-yl)acetamido)-2-hydroxy-3,4-dihydro-2H-benzo[e][1,2]oxaborinine-8-carboxylic acid] | C (C represents an MIC of <1 μg/mL) | B (B represents an MIC between 1 and 16 μg/mL inclusive) | C (C represents an MIC of <1 μg/mL) | < 0.1 µM | C (C represents an MIC of <1 μg/mL) | 0.1 to 1 µM | B (B represents an MIC between 1 and 16 μg/mL inclusive) | < 0.1 µM | 0.1 to 1 µM | B (B represents an MIC between 1 and 16 μg/mL inclusive) | < 0.1 µM |
| O=C(Cn1cc(C(=O)N[C@H]2CCNC2)nn1)N[C@H]1Cc2cccc(C(=O)O)c2OB1O [Example 81, (R)-2-hydroxy-3-(2-(4-(((S)-pyrrolidin-3-yl)carbamoyl)-1H-1,2,3-triazol-1-yl)acetamido)-3,4-dihydro-2H-benzo[e][1,2]oxaborinine-8-carboxylic acid] | C (C represents an MIC of <1 μg/mL) | C (C represents an MIC of <1 μg/mL) | C (C represents an MIC of <1 μg/mL) | < 0.1 µM | C (C represents an MIC of <1 μg/mL) | 0.1 to 1 µM | C (C represents an MIC of <1 μg/mL) | < 0.1 µM | < 0.1 µM | C (C represents an MIC of <1 μg/mL) | < 0.1 µM |
| NC1CCN(C(=O)c2cn(CC(=O)N[C@H]3Cc4cccc(C(=O)O)c4OB3O)nn2)CC1 [Example 82, (R)-3-(2-(4-(4-aminopiperidine-1-carbonyl)-1H-1,2,3-triazol-1-yl)acetamido)-2-hydroxy-3,4-dihydro-2H-benzo[e][1,2]oxaborinine-8-carboxylic acid] | C (C represents an MIC of <1 μg/mL) | C (C represents an MIC of <1 μg/mL) | C (C represents an MIC of <1 μg/mL) | < 0.1 µM | C (C represents an MIC of <1 μg/mL) | 0.1 to 1 µM | B (B represents an MIC between 1 and 16 μg/mL inclusive) | < 0.1 µM | 0.1 to 1 µM | C (C represents an MIC of <1 μg/mL) | < 0.1 µM |
| O=C(Cn1cc(C(=O)NC2CCNCC2)nn1)N[C@H]1Cc2cccc(C(=O)O)c2OB1O [Example 83, (R)-2-hydroxy-3-(2-(4-(piperidin-4-ylcarbamoyl)-1H-1,2,3-triazol-1-yl)acetamido)-3,4-dihydro-2H-benzo[e][1,2]oxaborinine-8-carboxylic acid] | C (C represents an MIC of <1 μg/mL) | C (C represents an MIC of <1 μg/mL) | C (C represents an MIC of <1 μg/mL) | 0.1 to 1 µM | C (C represents an MIC of <1 μg/mL) | 0.1 to 1 µM | B (B represents an MIC between 1 and 16 μg/mL inclusive) | < 0.1 µM | < 0.1 µM | B (B represents an MIC between 1 and 16 μg/mL inclusive) | 0.1 to 1 µM |
| O=C(Cn1cc(C(=O)N[C@@H]2CCNC2)nn1)N[C@H]1Cc2cccc(C(=O)O)c2OB1O [Example 84, (R)-2-hydroxy-3-(2-(4-(((R)-pyrrolidin-3-yl)carbamoyl)-1H-1,2,3-triazol-1-yl)acetamido)-3,4-dihydro-2H-benzo[e][1,2]oxaborinine-8-carboxylic acid] | C (C represents an MIC of <1 μg/mL) | B (B represents an MIC between 1 and 16 μg/mL inclusive) | C (C represents an MIC of <1 μg/mL) | 0.1 to 1 µM | C (C represents an MIC of <1 μg/mL) | 0.1 to 1 µM | C (C represents an MIC of <1 μg/mL) | < 0.1 µM | < 0.1 µM | B (B represents an MIC between 1 and 16 μg/mL inclusive) | < 0.1 µM |
| N[C@@H]1CCN(C(=O)c2cn(CC(=O)N[C@H]3Cc4cccc(C(=O)O)c4OB3O)nn2)C1 [Example 85, (R)-3-(2-(4-((R)-3-aminopyrrolidine-1-carbonyl)-1H-1,2,3-triazol-1-yl)acetamido)-2-hydroxy-3,4-dihydro-2H-benzo[e][1,2]oxaborinine-8-carboxylic acid] | C (C represents an MIC of <1 μg/mL) | C (C represents an MIC of <1 μg/mL) | C (C represents an MIC of <1 μg/mL) | 0.1 to 1 µM | C (C represents an MIC of <1 μg/mL) | 0.1 to 1 µM | B (B represents an MIC between 1 and 16 μg/mL inclusive) | < 0.1 µM | 0.1 to 1 µM | B (B represents an MIC between 1 and 16 μg/mL inclusive) | 0.1 to 1 µM |
| CC(C)(CN)CNC(=O)c1cn(CC(=O)N[C@H]2Cc3cccc(C(=O)O)c3OB2O)nn1 [Example 86, (R)-3-(2-(4-((3-amino-2,2-dimethylpropyl)carbamoyl)-1H-1,2,3-triazol-1-yl)acetamido)-2-hydroxy-3,4-dihydro-2H-benzo[e][1,2]oxaborinine-8-carboxylic acid] | C (C represents an MIC of <1 μg/mL) | C (C represents an MIC of <1 μg/mL) | C (C represents an MIC of <1 μg/mL) | 0.1 to 1 µM | C (C represents an MIC of <1 μg/mL) | 1 to 10 µM | C (C represents an MIC of <1 μg/mL) | 0.1 to 1 µM | < 0.1 µM | B (B represents an MIC between 1 and 16 μg/mL inclusive) | < 0.1 µM |
| CNCCNC(=O)c1cn(CC(=O)N[C@H]2Cc3cccc(C(=O)O)c3OB2O)nn1 [Example 87, (R)-2-hydroxy-3-(2-(4-((2-(methylamino)ethyl)carbamoyl)-1H-1,2,3-triazol-1-yl)acetamido)-3,4-dihydro-2H-benzo[e][1,2]oxaborinine-8-carboxylic acid] | C (C represents an MIC of <1 μg/mL) | C (C represents an MIC of <1 μg/mL) | C (C represents an MIC of <1 μg/mL) | 0.1 to 1 µM | C (C represents an MIC of <1 μg/mL) | 1 to 10 µM | C (C represents an MIC of <1 μg/mL) | < 0.1 µM | < 0.1 µM | B (B represents an MIC between 1 and 16 μg/mL inclusive) | < 0.1 µM |
